Source: US9790174B2, “Kinase inhibitors” (Respivert Limited, priority 2013, dated 2017)

Assays:
B-Raf = B-Raf (Homo sapiens (Human), UniProt P15056); experiment: KINOMEscan binding of kinase to standard ligand
Experimental: (§1) Kinase enzyme binding activities of compounds disclosed herein may be determined using a proprietary assay which measures active site-directed competition binding to an immobilized ligand (Fabian, M. A. et al., Nature Biotechnol., 2005, 23:329-336). These assays may be conducted by DiscoverX (formerly Ambit; San Diego, Calif.). The percentage inhibition produced by incubation with a test compound may be calculated relative to the non-inhibited control.

B-Raf (V600E) = B-Raf (V600E) (Homo sapiens (Human), UniProt P15056, V600E); experiment: KINOMEscan binding of kinase to standard ligand
Chain of B-Raf (V600E) (P15056 whole entry V600E): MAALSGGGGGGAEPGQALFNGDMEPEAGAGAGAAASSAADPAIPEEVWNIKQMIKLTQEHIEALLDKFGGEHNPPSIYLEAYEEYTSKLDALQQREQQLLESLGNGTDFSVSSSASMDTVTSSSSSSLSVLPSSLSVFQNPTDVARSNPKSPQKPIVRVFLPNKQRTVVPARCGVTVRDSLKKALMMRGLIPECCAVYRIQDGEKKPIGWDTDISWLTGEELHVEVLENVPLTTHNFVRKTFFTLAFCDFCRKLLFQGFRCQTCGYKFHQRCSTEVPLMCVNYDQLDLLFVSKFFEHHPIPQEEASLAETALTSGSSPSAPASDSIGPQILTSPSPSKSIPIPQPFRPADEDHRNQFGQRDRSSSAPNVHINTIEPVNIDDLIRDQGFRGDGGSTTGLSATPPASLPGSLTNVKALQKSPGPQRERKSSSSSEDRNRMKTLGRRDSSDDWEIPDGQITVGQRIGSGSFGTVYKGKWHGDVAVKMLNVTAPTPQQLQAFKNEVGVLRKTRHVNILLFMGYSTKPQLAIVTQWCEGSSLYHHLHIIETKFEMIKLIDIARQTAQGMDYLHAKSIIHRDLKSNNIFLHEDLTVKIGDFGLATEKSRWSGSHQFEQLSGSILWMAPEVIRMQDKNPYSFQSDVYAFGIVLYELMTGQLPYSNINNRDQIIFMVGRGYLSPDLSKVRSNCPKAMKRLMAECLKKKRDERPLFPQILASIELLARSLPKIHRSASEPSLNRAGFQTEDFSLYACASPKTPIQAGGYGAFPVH
Experimental: as §1

non-mutant kinases = experiment: KinomeScan selectivity scores; format: binding; conditions: for number of individual kinase hits S(1): % Ctrl <1; for number of individual kinase hits S(10): % Ctrl <10; for number of individual kinase hits S(35): % Ctrl <35; for selectivity compared to the Reference Compound: evidenced by lower selectivity scores
Experimental: These assays may be conducted by DiscoverX (formerly Ambit; San Diego, Calif.). The percentage inhibition produced by incubation with a test compound may be calculated relative to the non-inhibited control.

TNBS-induced colitis = TNBS-induced colitis in mice; format: in vivo, BDF1 mice; conditions: conducted over 2 days; oral
Experimental: Non-fasted, 10-12 week old, male BDF1 mice are dosed by oral gavage twice daily with either vehicle (5 mL/kg), reference item (Budesonide 2.5 mg/kg) or test compound (1 or 5 mg/kg) one day before (Day −1) stimulation of the inflammatory response by treatment with 2,4,6-trinitrobenzenesulphonic acid (TNBS) (15 mg/mL in 50% ethanol/50% saline). On Day 0 of the study TNBS (200 μL) is administered intra-colonically via a plastic catheter with BID dosing of the vehicle, reference or test compound continuing for 2 or 4 days. During the study, animals are weighed every day and stool observations are made and recorded as a score, based on stool consistency. At the time of sacrifice on Day 2 (or Day 4), the large intestine is removed and the length and weight recorded. Sections of the colon are taken for histopathology scoring to determine disease severity.

[1] = system: adoptive transfer colitis; experiment: Adoptive transfer in mice; format: in vivo, SCID mice; conditions: for % Inhibition: colon weight:length, induction window between naïve and vehicle animals; for levels of pro-inflammatory cytokines in samples of colon tissue: adoptive transfer model
Experimental: On Study day 0, female Balb/C mice are terminated and spleens obtained for CD45RB^high cell isolation (Using SCID IBD cell Separation protocol). Approximately 4×10^5 cells/mL CD45RB^high cells are then injected intraperitoneally (100 μL/mouse) into female SCID animals. On study day 14, mice are weighed and randomized into treatment groups based on body weight. On Day 14, compounds are administered BID, via oral gavage, in a peanut oil vehicle at the dose levels outlined below in Tables 6a and 6b and a dose volume of 5 mL/kg. Treatment continues until study day 42, at which point the animals are necropsied 4 hours after the morning administration. The colon length and weight are recorded and used as a secondary endpoint in the study as a measurement of colon oedema. The colon is then divided into six cross-sections, four of which are used for histopathology scoring (primary endpoint) and two are homogenised for cytokine analysis. Data shown is the % inhibition of the induction window between nave animals and vehicle animals, where higher inhibition implies closer to the non-diseased, nave, phenotype.

[2] = system: intestinal mucosa biopsies from ulcerative colitis patients; experiment: Human biopsy assay (cytokine release from intestinal mucosa biopsies); format: cell-based; conditions: 1 μg/mL, 24 hours
Experimental: Intestinal mucosa biopsies are obtained from the inflamed regions of the colons of IBD patients. The biopsy material is cut into small pieces (2-3 mm) and placed on steel grids in an organ culture chamber at 37° C. in a 5% CO2/95% O2 atmosphere in serum-free media. DMSO control or test compounds at the desired concentration are added to the tissue and incubated for 24 hr in the organ culture chamber. The supernatant is harvested for determination of IL-6, IL-8, IL-1β and TNFα levels by R&D ELISA.

[3] = system: endotoxin-induced uveitis; experiment: Endotoxin-induced uveitis in rats; format: in vivo, Lewis rats; conditions: rats treated with intravitreal endotoxin LPS
Experimental: Male, Lewis rats (6-8 weeks old, Charles River UK Limited) are housed in cages of 3 at 19-21° C. with a 12 h light/dark cycle (07:00/19:00) and fed a standard diet of rodent chow and water ad libitum. Non-fasted rats are weighed, individually identified on the tail with a permanent marker, and receive a single intravitreal administration into the right vitreous humor (5 μL dose volume) of 100 ng/animal of LPS (Escherichia coli 0111:B4 prepared in PBS, Sigma Aldrich, UK) using a 32-gauge needle. Untreated rats are injected with PBS. […] Following euthanasia, the right eye of each animal is enucleated and dissected into front (anterior) and back (posterior) sections around the lens. Each section is weighed and homogenised in 500 μL of sterile phosphate buffered saline followed by 20 minutes centrifugation at 12000 rpm at 4° C.

[4] = system: Salmonella typhimurium, strains TA98 and TA100; experiment: Mutagenicity assessment (bacterial reverse mutation screen); format: cell-based; conditions: TA98 and TA100, presence or absence of S-9 mix
Experimental: Studies were conducted by Sequani (Ledbury, Herefordshire, UK) to assess compounds of the invention for their ability to induce mutations in two histidine dependent auxotrophic mutants of Salmonella typhimurium, strains TA98 and TA100 in vitro.
The mutation screen was conducted using the plate incorporation method and was performed in both the presence and absence of S-9 mix (a liver post-mitochondrial fraction derived from the livers of Aroclor 1254 treated rats). The bacteria were exposed to test compounds dissolved in dimethylsulphoxide, which solvent was also used as the negative control. The dose levels used were 0.32, 1.6, 8, 40, 200, 1000 or 5000 μg/plate.

Chain of B-Raf (P15056 whole entry): as the sequence (P15056 whole entry V600E) above, with E600V counted along it

Row | SMILES | effect on the binding of B-Raf to its standard ligand (B-Raf) | effect on the binding of B-Raf (V600E) to its standard ligand (B-Raf (V600E)) | activity in TNBS model of colonic inflammation (histopathology analysis) (TNBS-induced colitis) | cytokine levels in anterior and posterior segments of the eyes [3] | increases in revertant colonies [4] | also measured
1 | COCCOCCOCCNC(=O)c1cc(Nc2cc(Oc3ccc(NC(=O)Nc4cc(C(C)(C)C)cc(NS(C)(=O)=O)c4OC)c4ccccc34)ccn2)cc(OC)c1 [Example 3, 3-((4-((4-(3-(5-(tert-Butyl)-2-methoxy-3-(methylsulfonamido)phenyl)ureido)naphthalen-1-yl)oxy)pyridin-2-yl)amino)-5-methoxy-N-(2-(2-(2-methoxyethoxy)ethoxy)ethyl)benzamide] | did not have any significant effect | did not have any significant effect | displayed substantial activity | – | – | number of individual kinase hits S(1) (non-mutant kinases; 50 nM): 0; number of individual kinase hits S(10) (non-mutant kinases; 50 nM): 9; number of individual kinase hits S(35) (non-mutant kinases; 50 nM): 36; number of individual kinase hits S(1) (non-mutant kinases; 500 nM): 18; number of individual kinase hits S(10) (non-mutant kinases; 500 nM): 59; number of individual kinase hits S(35) (non-mutant kinases; 500 nM): 93; selectivity compared to the Reference Compound (non-mutant kinases): substantially improved selectivities; activity in T cell driven model of colonic inflammation (ratios of colon weight to length) ([1]; adoptive transfer): displayed significant activity
2 | COCCOCCOCCOc1cc(Nc2nccc(Oc3ccc(NC(=O)Nc4cc(C(C)(C)C)cc(NS(C)(=O)=O)c4OC)c4ccccc34)n2)cc(OC)c1 [Example 4, N-(5-(tert-Butyl)-2-methoxy-3-(3-(4-((2-((3-methoxy-5-(2-(2-(2-methoxyethoxy)ethoxy)-ethoxy)phenyl)amino)pyrimidin-4-yl)oxy)naphthalen-1-yl)ureido)phenyl)methanesulfonamide] | did not have any significant effect | did not have any significant effect | displayed substantial activity | significantly reduced cytokine levels | no dose-related or statistically significant increases in revertant colonies | cytokine (IL-1β, IL-6 and IL-8) release compared to the DMSO control [2]: significantly inhibited; % Inhibition ([1]; 0.3 mg/kg BID oral gavage): 62%; % Inhibition ([1]; 1 mg/kg BID oral gavage): 110%; levels of pro-inflammatory cytokines in samples of colon tissue [1]: significantly reduced levels of pro-inflammatory cytokines
3 | COc1cc(Nc2cc(Oc3ccc(NC(=O)Nc4cc(C(C)(C)C)cc(NS(C)(=O)=O)c4OC)c4ccccc34)ccn2)cc(C(=O)NCCN2CCOCC2)c1 [Example 27, 3-((4-((4-(3-(5-(tert-Butyl)-2-methoxy-3-(methylsulfonamido)phenyl)ureido)naphthalen-1-yl)oxy)pyridin-2-yl)amino)-5-methoxy-N-(2-morpholinoethyl)benzamide] | did not have any significant effect | did not have any significant effect | displayed substantial activity | significantly reduced cytokine levels | no dose-related or statistically significant increases in revertant colonies | cytokine (IL-1β, IL-6 and IL-8) release compared to the DMSO control [2]: significantly inhibited; % Inhibition ([1]; 3 mg/kg BID oral gavage): 99%; levels of pro-inflammatory cytokines in samples of colon tissue [1]: significantly reduced levels of pro-inflammatory cytokines
4 | CNC(=O)c1cc(C(C)(C)C)cc(NC(=O)Nc2ccc(Oc3ccnc(Nc4cc(OC)cc(OCCOCCOCCOC)c4)c3)c3ccccc23)c1OC [Example 29, 5-(tert-Butyl)-2-methoxy-3-(3-(4-((2-((3-methoxy-5-(2-(2-(2-methoxyethoxy)ethoxy)-ethoxy)phenyl)amino)pyridin-4-yl)oxy)naphthalen-1-yl)ureido)-N-methylbenzamide] | – | – | – | significantly reduced cytokine levels | – | –
5 | COCCOCCOCCOc1cc(Nc2cc(Oc3ccc(NC(=O)Nc4cc(C(C)(C)C)cc(C(N)=O)c4OC)c4ccccc34)ccn2)cc(OC)c1 [Example 34, 5-(tert-Butyl)-2-methoxy-3-(3-(4-((2-((3-methoxy-5-(2-(2-(2-methoxyethoxy)ethoxy)ethoxy)phenyl)amino)pyridin-4-yl)oxy)naphthalen-1-yl)ureido)benzamide] | – | – | displayed substantial activity | – | – | –
6 | COc1cc(Nc2cc(Oc3ccc(NC(=O)Nc4cc(C(C)(C)C)cc(NS(C)(=O)=O)c4OC)c4ccccc34)ccn2)cc(C(=O)NCCCN2CCOCC2)c1 [Example 66, 3-((4-((4-(3-(5-(tert-Butyl)-2-methoxy-3-(methylsulfonamido)phenyl)ureido)naphthalen-1-yl)oxy)pyridin-2-yl)amino)-5-methoxy-N-(3-morpholinopropyl)benzamide] | – | – | – | significantly reduced cytokine levels | – | –
7 | COc1c(NC(=O)Nc2ccc(Oc3ccnc(Nc4ccccc4)c3)c3ccccc23)cc(C(C)(C)C)cc1C(=O)NC1COC1 [Example 75, 5-(tert-Butyl)-2-methoxy-N-(oxetan-3-yl)-3-(3-(4-((2-(phenylamino)pyridin-4-yl)oxy)-naphthalen-1-yl)ureido)benzamide] | did not have any significant effect | did not have any significant effect | displayed substantial activity | significantly reduced cytokine levels | no dose-related or statistically significant increases in revertant colonies | number of individual kinase hits S(1) (non-mutant kinases; 50 nM): 2; number of individual kinase hits S(10) (non-mutant kinases; 50 nM): 14; number of individual kinase hits S(35) (non-mutant kinases; 50 nM): 39; number of individual kinase hits S(1) (non-mutant kinases; 500 nM): 15; number of individual kinase hits S(10) (non-mutant kinases; 500 nM): 55; number of individual kinase hits S(35) (non-mutant kinases; 500 nM): 91; selectivity compared to the Reference Compound (non-mutant kinases): substantially improved selectivities
8 | COc1cc(Nc2cc(Oc3ccc(NC(=O)Nc4cc(C(C)(C)C)cc(NS(C)(=O)=O)c4OC)c4ccccc34)ccn2)cc(C(=O)NCCN2CCN(C)CC2)c1 [Example 79, 3-((4-((4-(3-(5-(tert-Butyl)-2-methoxy-3-(methylsulfonamido)phenyl)ureido)naphthalen-1-yl)oxy)pyridin-2-yl)amino)-5-methoxy-N-(2-(4-methylpiperazin-1-yl)ethyl)benzamide] | – | – | displayed substantial activity | – | – | –
